# Test results reported in ChEMBL document CHEMBL3124778, “Structure-based design of new dihydrofolate reductase antibacterial agents: 7-(benzimidazol-1-yl)-2,4-diaminoquinazolines” (J Med Chem, 2014).
# Experiments:
# Staphylococcus aureus [1] = test: Antibacterial activity against TMP-resistant Staphylococcus aureus expressing DHFR F99Y mutant after 18 to 24 hrs by alamar Blue assay; assay type: functional
# [2] = Selectivity ratio of Ki for human DHFR to Ki for Staphylococcus aureus DHFR
# Staphylococcus aureus [3] = test: Antibacterial activity against Staphylococcus aureus ATCC 13709 after 18 to 24 hrs by alamar Blue assay; assay type: functional
# Dihydrofolate reductase [4] = target: T1, Dihydrofolate reductase (Homo sapiens, UniProt P00374); test: Inhibition of human DHFR using dihydrofolate as substrate preincubated for 10 mins followed by substrate addition by spectrophotometric analysis in presence of NADPH
# T1 sequence (P00374 whole entry): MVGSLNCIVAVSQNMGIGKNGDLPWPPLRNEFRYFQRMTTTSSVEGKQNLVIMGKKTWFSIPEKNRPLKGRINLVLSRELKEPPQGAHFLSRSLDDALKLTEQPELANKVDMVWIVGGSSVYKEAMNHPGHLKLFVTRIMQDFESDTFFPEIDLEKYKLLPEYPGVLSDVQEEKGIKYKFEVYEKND
# Staphylococcus aureus [5] = test: Antibacterial activity against Staphylococcus aureus ATCC 13709 after 18 to 24 hrs by alamar Blue assay in presence of 20% heat inactivated mouse serum; assay type: functional
# Dihydrofolate reductase [6] = target: Dihydrofolate reductase (Staphylococcus aureus, UniProt P0A017); test: Inhibition of Staphylococcus aureus DHFR using dihydrofolate as substrate preincubated for 10 mins followed by substrate addition by spectrophotometric analysis in presence of NADPH
# Streptococcus pneumoniae [7] = test: Antibacterial activity against Streptococcus pneumoniae ATCC 49619 after 18 to 24 hrs by alamar Blue assay; assay type: functional
# Streptococcus pneumoniae [8] = test: Antibacterial activity against Streptococcus pneumoniae ATCC 51916 after 18 to 24 hrs by alamar Blue assay; assay type: functional
# Streptococcus pneumoniae [9] = test: Antibacterial activity against Streptococcus pneumoniae ATCC 700674 after 18 to 24 hrs by alamar Blue assay; assay type: functional
# Streptococcus pneumoniae [10] = test: Antibacterial activity against Streptococcus pneumoniae ATCC BAA-255 after 18 to 24 hrs by alamar Blue assay; assay type: functional
# Streptococcus pneumoniae [11] = test: Antibacterial activity against Streptococcus pneumoniae ATCC 700669 after 18 to 24 hrs by alamar Blue assay; assay type: functional
# Streptococcus pneumoniae [12] = test: Antibacterial activity against Streptococcus pneumoniae ATCC 700904 after 18 to 24 hrs by alamar Blue assay; assay type: functional
# Streptococcus pneumoniae [13] = test: Antibacterial activity against Streptococcus pneumoniae ATCC 700676 after 18 to 24 hrs by alamar Blue assay; assay type: functional
# Streptococcus pneumoniae [14] = test: Antibacterial activity against Streptococcus pneumoniae ATCC 700677 after 18 to 24 hrs by alamar Blue assay; assay type: functional
# Streptococcus pneumoniae [15] = test: Antibacterial activity against Streptococcus pneumoniae ATCC 700671 after 18 to 24 hrs by alamar Blue assay; assay type: functional
# Streptococcus pneumoniae [16] = test: Antibacterial activity against Streptococcus pneumoniae ATCC 700675 after 18 to 24 hrs by alamar Blue assay; assay type: functional
# Streptococcus pneumoniae [17] = test: Antibacterial activity against Streptococcus pneumoniae after 18 to 24 hrs by alamar Blue assay; assay type: functional
# Sequence of Dihydrofolate reductase (Staphylococcus aureus, UniProt P0A017) (P0A017 whole entry): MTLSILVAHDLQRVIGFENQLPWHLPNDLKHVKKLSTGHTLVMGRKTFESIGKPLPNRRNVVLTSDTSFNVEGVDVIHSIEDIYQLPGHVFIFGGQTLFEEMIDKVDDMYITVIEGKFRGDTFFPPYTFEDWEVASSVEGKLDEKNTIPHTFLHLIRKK
Compound,MIC (Staphylococcus aureus [1]) [µg/mL],Ratio Ki [2],MIC (Staphylococcus aureus [3]) [µg/mL],Ki (Dihydrofolate reductase [4]) [nM],MIC (Staphylococcus aureus [5]) [µg/mL],Ki (Dihydrofolate reductase [6]) [nM],other results
Cc1cc2nc(-c3ccccn3)n(-c3ccc4c(N)nc(N)nc4c3)c2cc1C,4,26000,0.125,,,,
Cc1cc2nc(C3CCOC3)n(-c3ccc4c(N)nc(N)nc4c3)c2cc1C (configuration not stated),> 64,,8,> 5000,64,4.2,
CN(Cc1cnc2nc(N)nc(N)c2n1)c1ccc(C(=O)N[C@@H](CCC(=O)O)C(=O)O)cc1 [METHOTREXATE],,,> 64,,,,
Cc1cc2nc(-c3cncn3C)n(-c3ccc4c(N)nc(N)nc4c3)c2cc1C,64,,4,2920,32,1.1,
Cc1cc2nc(-c3nccs3)n(-c3cc4nc(N)nc(N)c4cc3C)c2cc1C,0.125,97,0.03,,0.06,,
COc1cc2nc(-c3cccs3)n(-c3cc4nc(N)nc(N)c4cc3Cl)c2cc1OC,4,,0.5,> 3000,0.5,0.048,
Cc1cc2nc(-c3cccs3)n(-c3ccc4c(N)nc(N)nc4c3)c2cc1C,0.25,,0.015,,,,MIC (Streptococcus pneumoniae [7]): ≤ 0.5 µg/mL; MIC (Streptococcus pneumoniae [8]): 4 µg/mL; MIC (Streptococcus pneumoniae [9]): 16 µg/mL; MIC (Streptococcus pneumoniae [10]): ≤ 0.125 µg/mL; MIC (Streptococcus pneumoniae [11]): 4 µg/mL; MIC (Streptococcus pneumoniae [12]): 4 µg/mL; MIC (Streptococcus pneumoniae [13]): 0.25 µg/mL; MIC (Streptococcus pneumoniae [14]): 0.25 µg/mL; MIC (Streptococcus pneumoniae [15]): 32 µg/mL; MIC (Streptococcus pneumoniae [16]): 1 µg/mL; MIC50 (Streptococcus pneumoniae [17]): 1 µg/mL; MIC90 (Streptococcus pneumoniae [17]): 16 µg/mL
COc1cc2nc(-c3nccs3)n(-c3ccc4c(N)nc(N)nc4c3)c2cc1OC,16,5300,,,,,
Cc1cc2nc(N3CCOCC3)n(-c3ccc4c(N)nc(N)nc4c3)c2cc1C,> 64,,,,,,
COc1ccc(-c2nc3cc(C)c(C)cc3n2-c2ccc3c(N)nc(N)nc3c2)cc1,> 64,,2,2300,8,0.34,
COc1cc2nc(-c3nccs3)n(-c3cc4nc(N)nc(N)c4cc3C)c2cc1OC,8,8950,0.5,,0.5,,
Cc1cc2ncn(-c3ccc4c(N)nc(N)nc4c3)c2cc1C,> 64,,2,1610,32,1.7,
Cc1cc2nc(-c3cccs3)n(-c3cc4nc(N)nc(N)c4cc3Cl)c2cc1C,4,,0.03,> 3000,1,0.01,MIC (Streptococcus pneumoniae [7]): 0.5 µg/mL; MIC (Streptococcus pneumoniae [8]): 1 µg/mL; MIC (Streptococcus pneumoniae [9]): > 64 µg/mL; MIC (Streptococcus pneumoniae [10]): ≤ 0.125 µg/mL; MIC (Streptococcus pneumoniae [11]): 2 µg/mL; MIC (Streptococcus pneumoniae [12]): 4 µg/mL; MIC (Streptococcus pneumoniae [13]): 0.25 µg/mL; MIC (Streptococcus pneumoniae [14]): 0.25 µg/mL; MIC (Streptococcus pneumoniae [15]): > 64 µg/mL; MIC (Streptococcus pneumoniae [16]): 1 µg/mL; MIC50 (Streptococcus pneumoniae [17]): 1 µg/mL; MIC90 (Streptococcus pneumoniae [17]): > 64 µg/mL
Cc1cc2nc(-c3ccoc3)n(-c3ccc4c(N)nc(N)nc4c3)c2cc1C,2,90000,0.06,723,1,0.008,
